The test system of one assay is Mycobacterium avium. As to the kind of experiment: Antimycobacterial activity against Mycobacterium avium NIHJ1605. Format: functional.
The test system of assay [1] is Mycolicibacterium smegmatis. As to the kind of experiment: Antimycobacterial activity was determined against Mycobacterium smegmatis SANK75075. Format: functional.
In assay [2] the test system is Mycobacterium intracellulare. As to the kind of experiment: Antimycobacterial activity against Mycobacterium intracellular ATCC 1954 E-3. In kind it is functional.
Another assay relates to Mycobacterium kansasii. As to the kind of experiment: Antimycobacterial activity against Mycobacterium kansasii ATCC 12478. Format: functional.
The target in assay [3] is T1, Phospho-N-acetylmuramoyl-pentapeptide-transferase (Escherichia coli K-12, UniProt P0A6W3).
T1 sequence (P0A6W3 whole entry): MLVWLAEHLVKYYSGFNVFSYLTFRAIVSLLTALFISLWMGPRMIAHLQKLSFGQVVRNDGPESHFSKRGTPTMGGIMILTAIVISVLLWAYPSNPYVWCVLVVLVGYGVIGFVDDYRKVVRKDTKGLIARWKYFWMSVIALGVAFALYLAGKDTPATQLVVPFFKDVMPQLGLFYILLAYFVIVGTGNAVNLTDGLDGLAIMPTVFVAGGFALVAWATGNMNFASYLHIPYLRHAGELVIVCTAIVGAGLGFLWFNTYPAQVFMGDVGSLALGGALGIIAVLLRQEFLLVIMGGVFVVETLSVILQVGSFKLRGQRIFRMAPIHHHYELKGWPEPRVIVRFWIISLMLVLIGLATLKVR
As to the kind of experiment: Inhibitory concentration required against Translocase I.

The structures appear in SMILES notation. Values after ≈ are worked out from the molar mass of the structure shown. Where only a bound is given, the exact number is not on record here.

From ChEMBL document CHEMBL1136175, “Synthesis and antimycobacterial activity of capuramycin analogues. Part 2: acylated derivatives of capuramycin-related compounds” (Bioorg Med Chem Lett, 2003) come the findings set out here.

As usually defined, the MIC is the least concentration at which growth counts as inhibited. A high value points to a less susceptible organism. For orientation: IC50 means the concentration that inhibits the measured activity by half. Turning to `CCCCCC(=O)O[C@@H]1[C@H](OC)[C@@H]([C@@H](O[C@H]2OC(C(=O)N[C@H]3CCC[C@@H](C)NC3=O)=C[C@H](O)[C@@H]2O)C(N)=O)O[C@H]1n1ccc(=O)[nH]c1=O`, the MIC was 16 µg/mL (≈ 23.5 µM) in the assay with Mycobacterium avium, 50 µg/mL (≈ 73.3 µM) in assay [1], 2 µg/mL (≈ 2.93 µM) in assay [2] and 2 µg/mL (≈ 2.93 µM) in the assay on Mycobacterium kansasii. This compound also had an IC50 in assay [3] of 63.1 nM.
Turning to `CCCCCCO[C@@H]1[C@H](OC)[C@@H]([C@@H](O[C@H]2OC(C(=O)N[C@H]3CCC[C@@H](C)NC3=O)=C[C@H](O)[C@@H]2O)C(N)=O)O[C@H]1n1ccc(=O)[nH]c1=O`, the MIC in the assay with Mycobacterium avium came to 32 µg/mL (≈ 47.9 µM); in assay [1] it was 50 µg/mL (≈ 74.9 µM); in assay [2], 4 µg/mL (≈ 5.99 µM); against Mycobacterium kansasii, 32 µg/mL (≈ 47.9 µM). In assay [3], this compound showed an IC50 of 59.9 nM.
For `CCCCCCCCCCCC(=O)O[C@@H]1[C@H](OC)[C@@H]([C@@H](O[C@H]2OC(C(=O)Nc3ccccc3)=C[C@H](O)[C@@H]2O)C(N)=O)O[C@H]1n1ccc(=O)[nH]c1=O`, the MIC with Mycobacterium avium was found to be 1 µg/mL (≈ 1.4 µM); in assay [1] it was 6.25 µg/mL (≈ 8.72 µM); in assay [2], 4 µg/mL (≈ 5.58 µM); against Mycobacterium kansasii, 8 µg/mL (≈ 11.2 µM). The compound further gave an IC50 in assay [3] of over 3490 nM.
Regarding `CCCCCCC(=O)O[C@@H]1[C@H](OC)[C@@H]([C@@H](O[C@H]2OC(C(=O)Nc3ccccc3)=C[C@H](O)[C@@H]2O)C(N)=O)O[C@H]1n1ccc(=O)[nH]c1=O`, the MIC in the assay on Mycobacterium avium was determined as 0.5 µg/mL (≈ 0.773 µM); in assay [1], 25 µg/mL (≈ 38.7 µM); in assay [2], 1 µg/mL (≈ 1.55 µM); in the assay on Mycobacterium kansasii, 0.5 µg/mL (≈ 0.773 µM). Moreover, the IC50 in assay [3] is 371 nM.
On to `CCCCCCCCCCCCCCCCOC(=O)O[C@@H]1[C@H](OC)[C@@H]([C@@H](O[C@H]2OC(C(=O)N[C@H]3CCC[C@@H](C)NC3=O)=C[C@H](O)[C@@H]2O)C(N)=O)O[C@H]1n1ccc(=O)[nH]c1=O`, for which the MIC against Mycobacterium avium was 0.5 µg/mL (≈ 0.587 µM); in assay [1], over 100 µg/mL; in assay [2], 2 µg/mL (≈ 2.35 µM); against Mycobacterium kansasii it was 8 µg/mL (≈ 9.39 µM). The IC50 in assay [3] is over 2930 nM.
The matching figures for `CCCCCCCCOC(=O)O[C@@H]1[C@H](OC)[C@@H]([C@@H](O[C@H]2OC(C(=O)N[C@H]3CCC[C@@H](C)NC3=O)=C[C@H](O)[C@@H]2O)C(N)=O)O[C@H]1n1ccc(=O)[nH]c1=O`: 0.25 µg/mL (≈ 0.338 µM), 25 µg/mL (≈ 33.8 µM), 0.5 µg/mL (≈ 0.676 µM), 2 µg/mL (≈ 2.7 µM) and 676 nM.
The matching figures for `CCCCCCCCCCCCCCCC(=O)O[C@@H]1[C@H](OC)[C@@H]([C@@H](O[C@H]2OC(C(=O)Nc3ccccc3)=C[C@H](O)[C@@H]2O)C(N)=O)O[C@H]1n1ccc(=O)[nH]c1=O`: 2 µg/mL (≈ 2.59 µM), 12.5 µg/mL (≈ 16.2 µM), 16 µg/mL (≈ 20.7 µM), 32 µg/mL (≈ 41.4 µM) and over 3230 nM.
The matching figures for `CCCCCCCOC(=O)O[C@@H]1[C@H](OC)[C@@H]([C@@H](O[C@H]2OC(C(=O)N[C@H]3CCC[C@@H](C)NC3=O)=C[C@H](O)[C@@H]2O)C(N)=O)O[C@H]1n1ccc(=O)[nH]c1=O`: 0.25 µg/mL (≈ 0.344 µM), 50 µg/mL (≈ 68.9 µM), 1 µg/mL (≈ 1.38 µM), 2 µg/mL (≈ 2.76 µM) and 276 nM.
Regarding `CCCCCCCCCCCC(=O)O[C@@H]1[C@H](OC)[C@@H]([C@@H](O[C@H]2OC(C(=O)N[C@H]3CCC[C@@H](C)NC3=O)=C[C@H](O)[C@@H]2O)C(N)=O)O[C@H]1n1ccc(=O)[nH]c1=O`, the MIC with Mycobacterium avium was under 0.063 µg/mL; in assay [1], 1.56 µg/mL (≈ 2.04 µM); in assay [2], under 0.063 µg/mL; in the assay with Mycobacterium kansasii it was 0.5 µg/mL (≈ 0.653 µM). In addition, in assay [3], the IC50 was 2870 nM.
Consider `CCCCCCCCCCO[C@@H]1[C@H](OC)[C@@H]([C@@H](O[C@H]2OC(C(=O)N[C@H]3CCC[C@@H](C)NC3=O)=C[C@H](O)[C@@H]2O)C(N)=O)O[C@H]1n1ccc(=O)[nH]c1=O`, for which the MIC in the assay with Mycobacterium avium was 1 µg/mL (≈ 1.38 µM); in assay [1], 25 µg/mL (≈ 34.5 µM); in assay [2], 4 µg/mL (≈ 5.53 µM); with Mycobacterium kansasii, over 32 µg/mL. The compound also showed an IC50 in assay [3] of 884 nM.
On to `CCCCCCCCCC(=O)O[C@@H]1[C@H](OC)[C@@H]([C@@H](O[C@H]2OC(C(=O)Nc3ccccc3)=C[C@H](O)[C@@H]2O)C(N)=O)O[C@H]1n1ccc(=O)[nH]c1=O`, for which the MIC against Mycobacterium avium came out at 0.5 µg/mL (≈ 0.726 µM); in assay [1], 6.25 µg/mL (≈ 9.07 µM); in assay [2] it was 1 µg/mL (≈ 1.45 µM); with Mycobacterium kansasii, 2 µg/mL (≈ 2.9 µM). Moreover, the midpoint of inhibition in assay [3], the IC50, lay at 2760 nM.
Turning to `CCCCCCCC(=O)O[C@@H]1[C@H](OC)[C@@H]([C@@H](O[C@H]2OC(C(=O)N[C@H]3CCC[C@@H](C)NC3=O)=C[C@H](O)[C@@H]2O)C(N)=O)O[C@H]1n1ccc(=O)[nH]c1=O`, the MIC in the assay on Mycobacterium avium stood at 2 µg/mL (≈ 2.82 µM); in assay [1], 25 µg/mL (≈ 35.2 µM); in assay [2], 1 µg/mL (≈ 1.41 µM); in the assay on Mycobacterium kansasii it was 1 µg/mL (≈ 1.41 µM). This compound had an IC50 in assay [3] of 268 nM.
Consider `CCCCCO[C@@H]1[C@H](OC)[C@@H]([C@@H](O[C@H]2OC(C(=O)N[C@H]3CCC[C@@H](C)NC3=O)=C[C@H](O)[C@@H]2O)C(N)=O)O[C@H]1n1ccc(=O)[nH]c1=O`, for which the MIC in the assay on Mycobacterium avium was over 32 µg/mL; in assay [1] it was 100 µg/mL (≈ 153 µM); in assay [2], 4 µg/mL (≈ 6.12 µM); in the assay with Mycobacterium kansasii, over 32 µg/mL. The compound further gave an IC50 in assay [3] of 76.5 nM.
As for `CCCCC(=O)O[C@@H]1[C@H](OC)[C@@H]([C@@H](O[C@H]2OC(C(=O)N[C@H]3CCC[C@@H](C)NC3=O)=C[C@H](O)[C@@H]2O)C(N)=O)O[C@H]1n1ccc(=O)[nH]c1=O`, the MIC against Mycobacterium avium was determined as 32 µg/mL (≈ 47.9 µM); in assay [1] it was 100 µg/mL (≈ 150 µM); in assay [2] it was 2 µg/mL (≈ 3 µM); in the assay on Mycobacterium kansasii, 16 µg/mL (≈ 24 µM). The same compound had an IC50 in assay [3] of 35.9 nM.
The matching figures for `CCCCCCC(=O)O[C@@H]1[C@H](OC)[C@@H]([C@@H](O[C@H]2OC(C(=O)N[C@H]3CCC[C@@H](C)NC3=O)=C[C@H](O)[C@@H]2O)C(N)=O)O[C@H]1n1ccc(=O)[nH]c1=O`: 4 µg/mL (≈ 5.75 µM), 50 µg/mL (≈ 71.9 µM), 1 µg/mL (≈ 1.44 µM), 2 µg/mL (≈ 2.87 µM) and 64.7 nM.
The matching figures for `CCCCCCCCCCCCCCCC(=O)O[C@@H]1[C@H](OC)[C@@H]([C@@H](O[C@H]2OC(C(=O)N[C@H]3CCC[C@@H](C)NC3=O)=C[C@H](O)[C@@H]2O)C(N)=O)O[C@H]1n1ccc(=O)[nH]c1=O`: under 0.063 µg/mL, 6.25 µg/mL (≈ 7.6 µM), 0.25 µg/mL (≈ 0.304 µM), 4 µg/mL (≈ 4.87 µM) and 523 nM.
As to `CO[C@H]1[C@@H](O)[C@H](n2ccc(=O)[nH]c2=O)O[C@@H]1[C@@H](O[C@H]1OC(C(=O)Nc2ccccc2)=C[C@H](O)[C@@H]1O)C(N)=O`, the MIC was determined as 16 µg/mL (≈ 29.9 µM) with Mycobacterium avium, 6.25 µg/mL (≈ 11.7 µM) in assay [1], 4 µg/mL (≈ 7.48 µM) in assay [2] and 8 µg/mL (≈ 15 µM) with Mycobacterium kansasii. This compound also had an IC50 in assay [3] of 12.2 nM.
The matching figures for `CCCCCCCCCCCCCC(=O)O[C@@H]1[C@H](OC)[C@@H]([C@@H](O[C@H]2OC(C(=O)N[C@H]3CCC[C@@H](C)NC3=O)=C[C@H](O)[C@@H]2O)C(N)=O)O[C@H]1n1ccc(=O)[nH]c1=O`: under 0.063 µg/mL, 3.13 µg/mL (≈ 3.94 µM), 0.125 µg/mL (≈ 0.157 µM), 4 µg/mL (≈ 5.04 µM) and 5670 nM.
`CCCCCCCCO[C@@H]1[C@H](OC)[C@@H]([C@@H](O[C@H]2OC(C(=O)N[C@H]3CCC[C@@H](C)NC3=O)=C[C@H](O)[C@@H]2O)C(N)=O)O[C@H]1n1ccc(=O)[nH]c1=O`: the MIC in the assay with Mycobacterium avium is 16 µg/mL (≈ 23 µM); in assay [1], 50 µg/mL (≈ 71.9 µM); in assay [2] it was 2 µg/mL (≈ 2.87 µM); in the assay on Mycobacterium kansasii, over 32 µg/mL. Besides, in assay [3], half-maximal inhibition (IC50) was put at 216 nM.
